Experimental data: paper PMC12070314, “Efficient Small-Molecule Reversal Agents for Anticoagulant Fondaparinux” (ACS Pharmacology & Translational Science, 2025)

Tests used:
[1] = system: FXa/ATIII inhibited by fondaparinux; assay: In vitro FXa/ATIII enzymatic assay of anti-fondaparinux activity; type: biochemical, human; conditions: for Percent recovery of peptide substrate hydrolysis: [fond] = [antidote] = 15 μM, three reaction times
Method: The activity of two spermine derivatives, 3AC and 3FF, as fond antidotes was evaluated with an in vitro enzymatic assay related to blood coagulation, as previously described (Figure A). , In brief, fond promotes a conformational change in ATIII toward an efficient inhibitor of FXa. Addition of a ligand of fond hinders the inhibitory action of ATIII restoring the FXa hydrolytic activity, which has been used as an indirect measurement of antifond behavior.
Recombinant antithrombin III and coagulation factor Xa were obtained from two different kits, Berichrom Heparin test (SIEMENS) and Kinetichrome Anti-Xa Heparin kit (Iduron). Methods for both kits are similar, but not identical. Differences will be spotted by method A (SIEMENS) and method B (Iduron). Following the manufacturer’s instructions, stock solutions were prepared as follows: human antithrombin III (1 IU/mL) and factor Xa reagent (0.4 μg/mL, human plasma fraction with additives Tris, sodium chloride, and EDTA). Chromogenic substrate specific for factor Xa was dissolved at 4 mM concentration (A: Z-D-Leu-Gly-Arg-ANBA-methyl amide, and B: Z-D-Arg-Gly-Arg-pNA). Additionally, either 4-nitroaniline (A) or N-Boc-4-nitroaniline (B) was added to the substrate solution at a concentration of 1.6 mM and used as an internal standard to quantify the hydrolysis of the chromogenic substrate. All compounds were dissolved in Milli-Q water at the desired stock concentrations prior to start of the assays and kept at 4 °C. Various concentrations of the ligand, fondaparinux (up to 15 μM) or LMWH (0.1 to 10 μM), human antithrombin III solution (2 μL), and factor Xa reagent solution (35 μL) were consecutively added to an Eppendorf vial and brought to a total volume of 145 μL. Then, 20 μL of reagent substrate solution was added to start the experiment, and the mixture was vigorously shaken at 25 °C. 20 μL aliquots were taken at 5/10/15/20/30/50/80/120 minutes, diluted with 40 μL of acetic acid (20% v/v), and injected into the analytical HPLC system. The gradient ranged from 5% of ACN (0.1% formic acid) in water (0.1% formic acid) to 100% of ACN in 24 min using a 15 × 4.6 mm KROMAPHASE C18 5.0 μm column. In A: the retention time of cleaved chromophore was 9.1 min, retention time of chromogenic substrate was 13.9 min, and retention time of 4-nitroaniline was 15.4 min. In B: the retention time of chromogenic substrate was 11.0 min, retention time of cleaved chromophore was 15.2 min, and retention time of N-Boc-4-nitroaniline was 21.7 min. FXa/ATIII activity was represented as the percent of hydrolysis, which was calculated from the normalized area of the cleaved peptide at 405 nm at each corresponding time point. The experiment carried out in the absence of heparinoid was considered as the maximum of activity, while the experiment with heparinoid and no ligand was considered as negative control (maximum inhibition of FXa by heparinoid). The concentration of heparinoid was selected for the measurement to render significant inhibition within experimental time while allowing the reaction to proceed.

[2] = system: freshly extracted mouse blood; assay: Naked-eye ex vivo blood coagulation assay; type: cell-based; conditions: for Reversal of fond anticoagulant effect (clot formation by vial inversion): 100 μM fond + 200 μM antidote, 5 min
Method: Considering the results obtained in the in vitro assays, we aimed to test our molecules in a more relevant and challenging environment. To this aim, we performed naked-eye ex vivo coagulation assays (Figure ). Freshly extracted mouse blood samples were treated with fond (100 μM final concentration) in the absence and in the presence of different antidotes (two molar equivalents). Blood coagulation was visually inspected by the simple inversion of the vials. For a fair comparison between different series, all of the experiments were done in parallel with the corresponding control samples of untreated mouse blood (labeled “0” in Figure ). […] The effect of antidotes alone on blood coagulation was also tested (Figure B), showing that neither of the three small molecules appreciably changed the coagulation properties.
This naked-eye coagulation test is an adaptation of the whole blood clotting time assay. , Freshly collected mouse blood was directly used without further treatment. 300 μL aliquots were dispensed in Eppendorf tubes, to which fondaparinux (100 μM), and/or potential antidotes (3AC, 3FF, ciraparantag, or protamine, 200 μM) were added, and a picture was taken after 5 min. Clot formation was verified by inverting the Eppendorf vials.

In the case of Oc1ccccc1CNCCCNCCCCNCCCNCc1ccccc1O [Compound 3AA], the “Percent recovery of peptide substrate hydrolysis” value (shortened to “Percent recovery”) [1] was “lower potency as antidotes”.

COc1ccccc1CNCCCNCCCCNCCCNCc1ccccc1OC [Compound 3BB] was tested, and the “Percent recovery” value [1] was “lower potency as antidotes”.

With N=C(N)NCCC[C@H](N)C(=O)NCCCN1CCN(CCCNC(=O)[C@@H](N)CCCNC(=N)N)CC1 [cir, ciraparantag, reference compound] the “Reversal of fond anticoagulant effect (clot formation by vial inversion)” value [2] was “good antidote, though qualitatively less effective than 3AC/3FF” and the “Percent recovery” value [1] was “performs similarly to the spermine derivative ligand (3AA)”.

For CO[C@H]1O[C@H](COS(=O)(=O)O)[C@@H](O[C@@H]2O[C@@H](C(=O)O)[C@@H](O[C@H]3O[C@H](COS(=O)(=O)O)[C@@H](O[C@@H]4O[C@H](C(=O)O)[C@@H](O[C@H]5O[C@H](COS(=O)(=O)O)[C@@H](O)[C@H](O)[C@H]5NS(=O)(=O)O)[C@H](O)[C@H]4O)[C@H](OS(=O)(=O)O)[C@H]3NS(=O)(=O)O)[C@H](O)[C@H]2OS(=O)(=O)O)[C@H](O)[C@H]1NS(=O)(=O)O [fond, Fondaparinux], the “Effect on blood coagulation (vial inversion)” value ([2]; fond 100 μM alone) was “anticoagulant effect” and the “Effect on FXa hydrolytic activity” value ([1]; fond 15 μM, FXa/ATIII, no antidote) was “clearly reduces the hydrolytic activity”.

In the case of protamine, the “Reversal of fond anticoagulant effect (clot formation by vial inversion)” value [2] was “fails to be an antidote of fond”, the “Effect of antidote alone on blood coagulation” value ([2]; 200 μM antidote, no fond) was “acts as an anticoagulant itself” and the “Percent recovery” value [1] was “practically no in vitro activity against fond”.
